Data set [1] has as its system Puccinia recondita f. Sp. Tritici. Nature of the data set: Puccinia recondita f. sp. tritici / wheat / leaf disc preventative (brown rust). In kind it is in vivo. The note with it: foliar, 200 ppm in the applied formulation, wheat leaf segments cv. Kanzler, inoculated 1 day after application, vs untreated, 7 to 9 days after application, read-out: disease control. In short, it runs like this:
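Segments of cv. Kanzler wheat on agar received a spray of compound formulation diluted in water and were inoculated with spores one day afterwards. Kept at 19° C and 75% rh under 12 h/12 h light; disease control relative to untreated checks rated at 7–9 days post-application.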

Data set [2] shares this test system. Nature of the data set: Puccinia recondita f. sp. tritici / wheat / leaf disc curative (brown rust). The note with it: foliar, 200 ppm in the applied formulation, wheat leaf segments cv. Kanzler, compound applied 1 day after inoculation, vs untreated, 6 to 8 days after application, read-out: disease control. Type of data set: in vivo. The method in brief:
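Wheat leaf segments (cv. Kanzler) on agar inoculated with brown rust spores, held dark at 19 °C/75% RH, then sprayed 1 day post-inoculation with formulated compound diluted in water (curative). Incubated at 19 °C/75% RH, 12 h light/12 h dark; percent disease control versus untreated scored 6–8 days after application.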

Another data set relates to Uromyces viciae-fabae. The experiment in a line: Uromyces viciae-fabae / field bean / leaf disc preventative (faba-bean rust). Type of data set: in vivo. The settings on record: foliar, 288 h, 100 ppm in the applied formulation, field bean leaf discs, inoculated two hours after application, vs untreated, 12 days after application, read-out: disease control. As to the method: Leaf disks or leaf segments of various plant species are cut from plants grown in a greenhouse. The cut leaf disks or segments are placed in multiwell plates (24-well format) onto water agar. The leaf disks are sprayed with a test solution before (preventative) or after (curative) inoculation. Compounds to be tested are prepared as DMSO solutions (max. 10 mg/ml) which are diluted to the appropriate concentration with 0.025% Tween20 just before spraying. The inoculated leaf disks or segments are incubated under defined conditions (temperature, relative humidity, light, etc.) according to the respective test system. A single evaluation of disease level is carried out 3 to 14 days after inoculation, depending on the pathosystem. Percent disease control relative to the untreated check leaf disks or segments is then calculated.
Example 5: Fungicidal Activity Against Uromyces viciae-fabael Field Bean/Leaf Disc Preventative (Faba-Bean Rust)
Field bean leaf discs are placed on water agar in multiwell plates (96-well format) and 10 μl of the Formulated test compound diluted in acetone and a spreader pipetted onto the leaf disc. Two hours after application leaf discs are inoculated by spraying a spore suspension on the lower leaf surface. The leaf discs are incubated in a climate cabinet at 22° C. with 18 hour day and 70% relative humidity. The activity of a compound is assessed as percent disease control compared to untreated when an appropriate level of disease damage appears in untreated check leaf disks (12 days after application).
The following compounds at 100 ppm in the applied Formulation give at least 80% disease control in this test when compared to untreated control leaf discs under the same conditions, which show extensive disease development.

In data set [3] the test system is Glomerella lacenarium (Colletotrichum lacenarium). Nature of the data set: Glomerella lacenarium (Colletotrichum lacenarium) liquid culture / cucumber / preventative (anthracnose). Type of data set: cell-based. The settings on record: 20 ppm, liquid culture in PDB, 24° C., inhibition of growth measured photometrically 3 to 4 days after application, vs untreated, read-out: disease control. In short, it runs like this: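 Cryopreserved conidia in potato dextrose broth were added to test compound in a 96-well microtiter plate and incubated at 24 °C. Growth inhibition read photometrically 3–4 days after application, as percent activity versus untreated check.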

The next data set deals with Phakopsora pachyrhizi. The experiment in a line: Phakopsora pachyrhizi / soybean / leaf disc preventative (Asian soybean rust). The note with it: foliar, 200 ppm in the applied formulation, soybean leaf disks, inoculated one day after application, vs untreated, 12 to 14 days after application, read-out: disease control. Type of data set: in vivo. The method in brief:
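Soybean leaf discs on water agar sprayed with formulated compound diluted in water, then inoculated one day later with spore suspension on the lower surface. Held 24-36 h dark at 20 °C, 75% rh, then 12 h light/day; percent disease control versus untreated scored 12-14 days after application.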

Consider 18 molecules from patent publication US20200022370A1, “MICROBIOCIDAL OXADIAZOLE DERIVATIVES” (SYNGENTA PARTICIPATIONS AG, priority 2016, published 2020).

On to `C#CC(C)(C)C(=O)Nc1ccc(-c2noc(C(F)(F)F)n2)cc1` [Compound 1.5, 2,2-dimethyl-N-[4-[5-(trifluoromethyl)-1,2,4-oxadiazol-3-yl]phenyl]but-3-ynamide], for which the pest or weed control at 200 ppm (in data set [1]; in data set [2]; in the data set on Phakopsora pachyrhizi) was not below 80% in each case. For the same molecule, the pest or weed control at 100 ppm in the data set on Uromyces viciae-fabae is not below 80%. Also, the inhibition of growth at 20 ppm in data set [3] is not below 80%.
On to `COC1=CC(=O)CC(C(=O)Nc2ccc(-c3noc(C(F)(F)F)n3)cc2)C1` (stereo not shown) [Compound 1.31, 3-methoxy-5-oxo-N-[4-[5-(trifluoromethyl)-1,2,4-oxadiazol-3-yl]phenyl]cyclohex-3-ene-1-carboxamide], for which the pest or weed control at 200 ppm (in data set [1]; with Phakopsora pachyrhizi) was not below 80% throughout. In addition, the pest or weed control at 100 ppm in the data set with Uromyces viciae-fabae was not below 80%. The inhibition of growth at 20 ppm in data set [3] was not below 80%.
For the molecule `CC(=O)N(C(C)=O)c1ccc(-c2noc(C(F)(F)F)n2)cn1` [Compound 1.45, N-acetyl-N-[5-[5-(trifluoromethyl)-1,2,4-oxadiazol-3-yl]-2-pyridyl]acetamide], the pest or weed control at 200 ppm (in data set [1]; in data set [2]; in the data set on Phakopsora pachyrhizi) was not below 80% each time. In the data set on Uromyces viciae-fabae, the pest or weed control at 100 ppm is not below 80%. For the same molecule, the inhibition of growth at 20 ppm in data set [3] was not below 80%.
Take `CC(=O)N(CC(=O)NC(C)(C)C)c1ccc(-c2noc(C(F)(F)F)n2)cc1` [Compound 1.56, 2-[N-acetyl-4-[5-(trifluoromethyl)-1,2,4-oxadiazol-3-yl]anilino]-N-tert-butyl-acetamide]: the pest or weed control at 200 ppm in data set [1] and in data set [2] was not below 80% each time. In addition, the pest or weed control at 100 ppm in the data set with Uromyces viciae-fabae was not below 80%. Also, the inhibition of growth at 20 ppm in data set [3] is not below 80%.
In the case of `CONC(=O)Nc1ccc(-c2noc(C(F)(F)F)n2)cn1` [Compound 1.63, 1-methoxy-3-[5-[5-(trifluoromethyl)-1,2,4-oxadiazol-3-yl]-2-pyridyl]urea], the melting point (usually the temperature of the solid-liquid transition) was in the range of 151 to 154 °C. Besides, the inhibition of growth at 20 ppm in data set [3] is not below 80%. For the same molecule, in the data set with Phakopsora pachyrhizi, the pest or weed control at 200 ppm is not below 80%.
In the case of `CON(C)C(=O)Nc1ccc(-c2noc(C(F)(F)F)n2)cn1` [Compound 1.64, 1-methoxy-1-methyl-3-[5-[5-(trifluoromethyl)-1,2,4-oxadiazol-3-yl]-2-pyridyl]urea], the melting point was in the range of 83 to 87 °C. Moreover, in data set [1], the pest or weed control at 200 ppm is not below 80%. Besides, the inhibition of growth at 20 ppm in data set [3] was not below 80%.
As for `CC(C)=CCONC(=O)Nc1ccc(-c2noc(C(F)(F)F)n2)cc1` [Compound 1.66, 1-(3-methylbut-2-enoxy)-3-[4-[5-(trifluoromethyl)-1,2,4-oxadiazol-3-yl]phenyl]urea], the melting point fell in the range of 118 to 121 °C. In addition, the pest or weed control at 200 ppm in data set [1] is not below 80%. The inhibition of growth at 20 ppm in data set [3] was not below 80%.
The molecule `CCN(OC)C(=O)Nc1ccc(-c2noc(C(F)(F)F)n2)cc1` [Compound 1.67, 1-ethyl-1-methoxy-3-[4-[5-(trifluoromethyl)-1,2,4-oxadiazol-3-yl]phenyl]urea] displayed a melting point of 113 to 116 °C. In addition, the pest or weed control at 200 ppm in data set [1] is not below 80%. In addition, in data set [2], the pest or weed control at 200 ppm was not below 80%. Further, in data set [3], the inhibition of growth at 20 ppm is not below 80%. In addition, in the data set with Phakopsora pachyrhizi, the pest or weed control at 200 ppm was not below 80%.
Molecule `COCCN(OC)C(=O)Nc1ccc(-c2noc(C(F)(F)F)n2)cc1` [Compound 1.68, 1-methoxy-1-(2-methoxyethyl)-3-[4-[5-(trifluoromethyl)-1,2,4-oxadiazol-3-yl]phenyl]urea] showed a melting point of 89 to 92 °C. Moreover, in data set [1], the pest or weed control at 200 ppm is not below 80%. Besides, the pest or weed control at 200 ppm in data set [2] is not below 80%. Moreover, the inhibition of growth at 20 ppm in data set [3] was not below 80%. Besides, in the data set with Phakopsora pachyrhizi, the pest or weed control at 200 ppm is not below 80%.
The molecule `CON(CC1CC1)C(=O)Nc1ccc(-c2noc(C(F)(F)F)n2)cc1` [Compound 1.69, 1-(cyclopropylmethyl)-1-methoxy-3-[4-[5-(trifluoromethyl)-1,2,4-oxadiazol-3-yl]phenyl]urea] gave a melting point of 117 to 120 °C. For the same molecule, the inhibition of growth at 20 ppm in data set [3] was not below 80%.
In the case of `C=C(C)CONC(=O)Nc1ccc(-c2noc(C(F)(F)F)n2)cc1` [Compound 1.70, 1-(2-methylallyloxy)-3-[4-[5-(trifluoromethyl)-1,2,4-oxadiazol-3-yl]phenyl]urea], the melting point was 134 to 137 °C. Besides, in data set [1], the pest or weed control at 200 ppm is not below 80%. In data set [2], the pest or weed control at 200 ppm was not below 80%. Further, the inhibition of growth at 20 ppm in data set [3] was not below 80%. Moreover, in the data set with Phakopsora pachyrhizi, the pest or weed control at 200 ppm was not below 80%.
The molecule `O=C(NOCc1ccccc1F)Nc1ccc(-c2noc(C(F)(F)F)n2)cc1` [Compound 1.127, 1-[(2-fluorophenyl)methoxy]-3-[4-[5-(trifluoromethyl)-1,2,4-oxadiazol-3-yl]phenyl]urea] registered a melting point of 140 to 143 °C. Besides, in data set [3], the inhibition of growth at 20 ppm was not below 80%.
The molecule `CON1CCN(C(=O)Nc2ccc(-c3noc(C(F)(F)F)n3)cc2)CC1` [Compound 1.130, 4-methoxy-N-[4-[5-(trifluoromethyl)-1,2,4-oxadiazol-3-yl]phenyl]piperazine-1-carboxamide] displayed a melting point of 164 to 167 °C. For the same molecule, the pest or weed control at 200 ppm in data set [1] was not below 80%. In data set [2], the pest or weed control at 200 ppm is not below 80%. For the same molecule, the inhibition of growth at 20 ppm in data set [3] is not below 80%. In the data set with Phakopsora pachyrhizi, the pest or weed control at 200 ppm is not below 80%.
`C=C(C)CON(C)C(=O)Nc1ccc(-c2noc(C(F)(F)F)n2)cc1` [Compound 1.131, 1-methyl-1-(2-methylallyloxy)-3-[4-[5-(trifluoromethyl)-1,2,4-oxadiazol-3-yl]phenyl]urea] gave a melting point of 65 to 68 °C. Moreover, the pest or weed control at 200 ppm in data set [1] is not below 80%. Further, the pest or weed control at 200 ppm in data set [2] is not below 80%. Besides, the inhibition of growth at 20 ppm in data set [3] was not below 80%. Further, the pest or weed control at 200 ppm with Phakopsora pachyrhizi is not below 80%.
As for `CONC(=O)N(C)c1ccc(-c2noc(C(F)(F)F)n2)cc1` [Compound 1.132, 3-methoxy-1-methyl-1-[4-[5-(trifluoromethyl)-1,2,4-oxadiazol-3-yl]phenyl]urea], the melting point is 73 to 76 °C. Besides, the pest or weed control at 200 ppm in data set [1] was not below 80%. In addition, the pest or weed control at 200 ppm in data set [2] was not below 80%. In addition, in data set [3], the inhibition of growth at 20 ppm was not below 80%.
`CCC(=O)N(C)c1ccc(-c2noc(C(F)(F)F)n2)cc1` [Compound 2.17, N-methyl-N-[4-[5-(trifluoromethyl)-1,2,4-oxadiazol-3-yl]phenyl] propanamide] had a melting point of 78 to 86 °C. The pest or weed control at 200 ppm in data set [1] was not below 80%. Also, the pest or weed control at 200 ppm in data set [2] was not below 80%. Moreover, the inhibition of growth at 20 ppm in data set [3] is not below 80%. Also, in the data set on Phakopsora pachyrhizi, the pest or weed control at 200 ppm is not below 80%.
Consider `CN(C(=O)C1CCC1)c1ccc(-c2noc(C(F)(F)F)n2)cc1` [Compound 2.25, N-methyl-N-[4-[5-(trifluoromethyl)-1,2,4-oxadiazol-3-yl]phenyl]cyclobutane-carboxamide], for which the pest or weed control at 200 ppm (in data set [1]; in data set [2]; with Phakopsora pachyrhizi) was not below 80% throughout. The pest or weed control at 100 ppm in the data set with Uromyces viciae-fabae was not below 80%. In addition, in data set [3], the inhibition of growth at 20 ppm is not below 80%.
The molecule `CONC(=O)Nc1ccc(-c2noc(C(F)(F)F)n2)cc1` [Compound 2.30, 1-methoxy-3-[4-[5-(trifluoromethyl)-1,2,4-oxadiazol-3-yl]phenyl]urea] came in with a melting point of 152 to 155 °C. Further, in data set [1], the pest or weed control at 200 ppm was not below 80%. The inhibition of growth at 20 ppm in data set [3] is not below 80%.
